Results: ChEMBL document CHEMBL3507680, “University of Dundee, Gates Library screen for HepG2 cell viability”

Assay: Human HepG2 cell viability assay in 384 well format
Type: toxicity, cell-based
Set-up: dose 125 nL, time 70.5 hour; cytotoxicity at 70.5 h: concentration not given beside the values
Conditions: HepG2 cells, read-out: Inhibition
Molecule `COCCN(C)C(=O)Nc1ccn(-c2cccc(C(F)(F)F)c2)n1` has a cytotoxicity at 70.5 h of -2.62%.
`CC(O)CN(C)C(=O)Nc1ccn(-c2cccc(C(F)(F)F)c2)n1` (stereo unspecified) gave a cytotoxicity at 70.5 h of -3.19%.
For `CCN(CC(=O)NCCc1nc(C)no1)Cc1ccc(Cl)cc1`, the cytotoxicity at 70.5 h was -2.02%.
Molecule `CC(C)(C)OC(=O)N1CCC[C@H](NCC2CCOCC2)C1` has a cytotoxicity at 70.5 h of -0.369%.
Work on `CCC(=O)N1CCC(NC2CCCC2)C1` (stereo unspecified) yielded a cytotoxicity at 70.5 h of -7.41%.
Work on `Cn1ncc2c(=O)[nH]c(CN3CCCc4cc(F)ccc43)nc21` yielded a cytotoxicity at 70.5 h of -23.1%.
`Cc1cc(F)c2c(c1)CCCN2Cc1nc2c(cnn2C)c(=O)[nH]1` showed a cytotoxicity at 70.5 h of -28.1%.
Molecule `CCN(CC)Cc1ccc(C(=O)NC2CCc3cc(F)ccc32)o1` (stereo unspecified) has a cytotoxicity at 70.5 h of -19%.
In the case of `CCN(CC)Cc1ccc(C(=O)NC2CCc3cc(Cl)ccc32)o1` (stereo unspecified), the cytotoxicity at 70.5 h is reported as 21.2%.
For `CC(C)N(Cc1ccccc1)C(=O)NCCNC(=O)c1cccnc1`, the cytotoxicity at 70.5 h was -13.6%.
Molecule `NC(=O)CC1CCCCN1C(=O)c1ccc2cc[nH]c2c1` (stereo unspecified) has a cytotoxicity at 70.5 h of 21.6%.
In the case of `O=C(NCc1ccccn1)NCC(O)c1ccccc1C(F)(F)F` (stereo unspecified), the cytotoxicity at 70.5 h is reported as -5.77%.
`CC(C)CNC(=O)c1[nH]nc(C2CC2)c1Br` showed a cytotoxicity at 70.5 h of -4.78%.
For `CC(C)(CNc1c(C#N)cnc2ccc(Cl)cc12)C(N)=O`, the cytotoxicity at 70.5 h was -17.7%.
With `CN(C)C(CNC(=O)c1[nH]nc(C2CC2)c1Br)C1CC1` (stereo unspecified) the cytotoxicity at 70.5 h was -5.45%.
For `Cc1cc(C2CCCN(CC(=O)N3CCCc4ccccc43)C2)n[nH]1` (stereo unspecified), the cytotoxicity at 70.5 h was -9.66%.
For `Cc1c(Br)cccc1C(=O)Nc1cc(C(N)=O)n(C)c1`, the cytotoxicity at 70.5 h was -6.66%.
`CCc1csc(NC(=O)Nc2c(C)n[nH]c2C)n1` gave a cytotoxicity at 70.5 h of -4.31%.
`CS(=O)(=O)CC1(CNc2cc(C#N)c3cc(Cl)ccc3n2)CC1` showed a cytotoxicity at 70.5 h of -6.39%.
For `Cc1cnc(CN(C)Cc2cccc(OC(F)(F)F)c2)cn1`, the cytotoxicity at 70.5 h was -3.82%.
Work on `CCC1c2ccccc2CCN1CCCS(C)(=O)=O` (stereo unspecified) yielded a cytotoxicity at 70.5 h of -3.06%.
`CN(Cc1cccc(O)c1)Cc1cnn(C)c1` showed a cytotoxicity at 70.5 h of -4.55%.
Work on `CC(NCc1cnc(N2CCN(C)CC2)nc1)c1ccc(F)cc1` (stereo unspecified) yielded a cytotoxicity at 70.5 h of -6.26%.
Work on `CCCN1CCCN(C(=O)c2oc(C)nc2C)CC1` yielded a cytotoxicity at 70.5 h of 30.9%.
With `CC(C)OCc1noc(C2CCOC2)n1` (stereo unspecified) the cytotoxicity at 70.5 h was -9.31%.
Work on `CC(c1nc(C(C)(C)C)no1)S(=O)(=O)CC(=O)N(C)C` (stereo unspecified) yielded a cytotoxicity at 70.5 h of -6.15%.
`CC(c1nc(C(C)(C)C)no1)S(=O)(=O)CC(=O)N1CCCC1` (stereo unspecified) showed a cytotoxicity at 70.5 h of -2.18%.
With `Cc1cn2nc(Sc3nnnn3C)sc2n1` the cytotoxicity at 70.5 h was -4.31%.
For `COc1ccc(C(=O)Nc2ccc3c(c2)C(=O)NC3)cc1Br`, the cytotoxicity at 70.5 h was -5.4%.
Molecule `CNS(=O)(=O)c1ccc(C(=O)Nc2ccc3c(c2)C(=O)NC3)cc1` has a cytotoxicity at 70.5 h of 1.61%.
Molecule `CC(SCC(=O)N(C)CC(=O)NC1CC1)c1ccc(F)c(F)c1` (stereo unspecified) has a cytotoxicity at 70.5 h of -10.3%.
`CN(CC(=O)NC(C)(C)C)C(=O)C1CC(c2cccc(F)c2)=NO1` (stereo unspecified) showed a cytotoxicity at 70.5 h of 4.91%.
For `CN(Cc1ccc2c(c1)OCO2)C(=O)C1CC(c2cccc(F)c2)=NO1` (stereo unspecified), the cytotoxicity at 70.5 h was -9.63%.
Molecule `CCn1c(C)nnc1Sc1nn2cc(C)nc2s1` has a cytotoxicity at 70.5 h of -5.8%.
Work on `CCCNC(=O)C1CCN(CC(O)c2ccccc2)CC1` (stereo unspecified) yielded a cytotoxicity at 70.5 h of -10.6%.
`CCOc1ccc(C#N)cc1NC(=O)N1CCC(n2cncn2)CC1` gave a cytotoxicity at 70.5 h of 5.95%.
For `COc1cccc(-c2nnn(C3CCN(CC(F)(F)F)C3=O)n2)c1` (stereo unspecified), the cytotoxicity at 70.5 h was 0.471%.
In the case of `O=C(c1cc(F)ccc1O)N1CCN(C(=O)C2CCC2)CC1`, the cytotoxicity at 70.5 h is reported as -3.26%.
In the case of `O=C(c1cc(F)ccc1O)N1CCN(C2CCOCC2)CC1`, the cytotoxicity at 70.5 h is reported as 0.856%.
For `CC(C)(C)S(=O)(=O)c1ccc(N2CCC(n3cncn3)CC2)cn1`, the cytotoxicity at 70.5 h was 14.6%.
Molecule `CC(C)(C)S(=O)(=O)c1ccc(N2CCC(n3cccn3)CC2)cn1` has a cytotoxicity at 70.5 h of 6.49%.
`CC(C)(C)S(=O)(=O)c1ccc(N2CCC(n3ccnc3)CC2)cn1` gave a cytotoxicity at 70.5 h of -12.2%.
Molecule `CCOC(=O)CN(C)Cc1cnc(C)s1` has a cytotoxicity at 70.5 h of 7.03%.
`CC(C)OCc1noc(C2CCCOC2)n1` (stereo unspecified) showed a cytotoxicity at 70.5 h of -10.6%.
`CN1CC(NC(=O)CCOc2cccc(Cl)c2)CC1=O` (stereo unspecified) showed a cytotoxicity at 70.5 h of 17.2%.
With `CC(C)C(=O)N(C)Cc1nnc2n1CCCCC2` the cytotoxicity at 70.5 h was 25%.
With `CN(C(=O)Cc1coc(-c2ccccc2)n1)C1(C#N)CCC1` the cytotoxicity at 70.5 h was 1.14%.
`CC(C)OCCCNC(=O)NC(C)c1ccc(-n2cncn2)cc1` (stereo unspecified) gave a cytotoxicity at 70.5 h of 0.395%.
`CCOCCCNC(=O)NC(C)c1ccc(-n2cncn2)cc1` (stereo unspecified) showed a cytotoxicity at 70.5 h of -5.55%.
For `CC(=O)c1cccc(S(=O)(=O)N2CCC(c3noc(C)n3)CC2)c1`, the cytotoxicity at 70.5 h was -9.37%.
With `Cc1ccc(OCCC(=O)NC2CC(=O)N(C)C2)cc1C` (stereo unspecified) the cytotoxicity at 70.5 h was -6.43%.
With `CC(C)CC(NS(C)(=O)=O)C(=O)N(C)Cc1nnc2n1CCC2` (stereo unspecified) the cytotoxicity at 70.5 h was -8.38%.
Work on `O=C(Nc1ccccc1)c1ccc(NCc2nccs2)nn1` yielded a cytotoxicity at 70.5 h of -10%.
With `Cc1cnn(CCNC(C)C(=O)NCCc2cccs2)c1` (stereo unspecified) the cytotoxicity at 70.5 h was 23%.
For `O=C(Nc1ccccc1)c1ccc(NCc2ccccc2CO)nn1`, the cytotoxicity at 70.5 h was -6.13%.
For `CS(=O)(=O)CCSCc1cccc2cccnc12`, the cytotoxicity at 70.5 h was -4.91%.
Work on `CCc1cnc(N2CCN(Cc3ccon3)CC2)s1` yielded a cytotoxicity at 70.5 h of -6.28%.
For `CC(=O)Nc1ccc(CNC2CCCSC2)cc1` (stereo unspecified), the cytotoxicity at 70.5 h was 23.3%.
Work on `CN(C(=O)Cc1coc(-c2cccs2)n1)C1(C#N)CCC1` yielded a cytotoxicity at 70.5 h of -6.29%.
For `CC(C)OCCn1nnnc1Cc1ccc(Br)cc1`, the cytotoxicity at 70.5 h was -5.01%.
`COC(=O)CC1CN(Cc2c(Cl)ccc3cccnc23)CCO1` (stereo unspecified) gave a cytotoxicity at 70.5 h of -12.3%.
With `CC(CNC(=O)NCc1ccco1)CC1(C)OCCO1` (stereo unspecified) the cytotoxicity at 70.5 h was 15.5%.
Molecule `CC(CNC(=O)NCc1ccc2c(c1)OCO2)CC1(C)OCCO1` (stereo unspecified) has a cytotoxicity at 70.5 h of -5.24%.
`CCc1nsc(N2CCN(Cc3ccno3)CC2)n1` showed a cytotoxicity at 70.5 h of -0.144%.
`CC(O)CN1CCC(CN(C)Cc2cc(C#N)ccc2F)CC1` (stereo unspecified) showed a cytotoxicity at 70.5 h of -7.5%.
In the case of `Clc1cccc(CNc2cnn(CCN3CCCCC3)c2)c1`, the cytotoxicity at 70.5 h is reported as -11.9%.
Work on `CC1CN(C(=O)NCCc2nc(C(C)C)no2)CCO1` (stereo unspecified) yielded a cytotoxicity at 70.5 h of 10.3%.
For `Cc1nn(C)c2ncc(CN3CCCCCC3)cc12`, the cytotoxicity at 70.5 h was -5.07%.
For `CCN1CCOC(CNCc2c(Cl)nc3ccccn23)C1` (stereo unspecified), the cytotoxicity at 70.5 h was -21.6%.
`CCCn1nnnc1COc1cc(OC)ccc1C(N)=O` showed a cytotoxicity at 70.5 h of -7.31%.
`Cc1noc(C)c1CN(C)Cn1c(=O)oc2ccccc21` showed a cytotoxicity at 70.5 h of 39.4%.
Molecule `O=C(COc1ccccc1)N1CCCC1c1ccc[nH]1` (stereo unspecified) has a cytotoxicity at 70.5 h of -17.9%.
Work on `Cc1noc(C)c1CN(C)C(=O)Cn1c(=O)n(C)c2ccccc21` yielded a cytotoxicity at 70.5 h of -15.9%.
For `CC(C)C(C(=O)N1CCN(Cc2ccncc2)CC1)n1cncn1` (stereo unspecified), the cytotoxicity at 70.5 h was -9.68%.
For `CCC(C)NC(=O)Cc1c(C)nc2c(c1C)c(=O)[nH]n2C` (stereo unspecified), the cytotoxicity at 70.5 h was -8.46%.
`Cc1cc(C)n(C2CN(Cc3noc(-c4ccccc4)n3)C2)n1` showed a cytotoxicity at 70.5 h of -4.76%.
With `CCS(=O)(=O)CCNC(=O)c1ccc(-c2ccc(C)cc2)cc1F` the cytotoxicity at 70.5 h was -6.67%.
Molecule `CC(C)(C)OC(=O)CNC(=O)CCc1nnc(-c2ccsc2)o1` has a cytotoxicity at 70.5 h of 0.905%.
`COc1ccc(-c2nc(CN3CC(n4cc(C)cn4)C3)no2)cc1` gave a cytotoxicity at 70.5 h of -4.24%.
`O=C(NC1(c2cccc(F)c2)CCOCC1)c1ccccn1` showed a cytotoxicity at 70.5 h of 12%.
Work on `NC(=O)CSCC(=O)N1CCc2cc(Cl)cc(Cl)c2C1` yielded a cytotoxicity at 70.5 h of -10.4%.
For `Cc1cc(OCC(=O)NC(C)c2ccc(N3CCOCC3)cc2)no1` (stereo unspecified), the cytotoxicity at 70.5 h was -3.83%.
`CCc1ccc(C2CCCCCN2Cc2nc(CCOC)no2)o1` (stereo unspecified) showed a cytotoxicity at 70.5 h of -6.85%.
In the case of `Clc1ccc(CN2CCCC(Cn3cncn3)C2)c2ncccc12` (stereo unspecified), the cytotoxicity at 70.5 h is reported as -8.25%.
Work on `CCc1noc(CN(C)Cc2ccc(N3CCCCC3)cc2)n1` yielded a cytotoxicity at 70.5 h of -7.61%.
`Cc1cccc(-c2c[nH]c(C3CCCN3)n2)c1` (stereo unspecified) showed a cytotoxicity at 70.5 h of -7.37%.
